Assay results reported in US20110065734A1, “NOVEL BIFUNCTIONAL COMPOUNDS WHICH INHIBIT PROTEIN KINASES AND HISTONE DEACETYLASES” (4SC AG, priority 2007, published 2011).
Counter-ions that a name gives are not always drawn. Like-named read-outs stand apart in the source and are kept apart here.

Columns and labels:
Protein kinase A (PKA) = biological target: T1, Protein kinase A (PKA) (Homo sapiens, UniProt P17612); assay: Biochemical flash-plate based kinase assay, PKA
T1 construct: purchased InvitroGen/Panvera, Carlsbad/USA
Description: (§1) Active kinase proteins were either obtained from commercial suppliers (Abl, PDGF-Rβ ProQinase, Freiburg/Germany; AblT^315I: Millipore/Upstate, Billerica/USA; PKA: InvitroGen/Panvera, Carlsbad/USA) or prepared in-house (KDR, c-terminal kinase domain AA790-1356, HER2 c-terminal kinase domain, EGFR/HER1 C-terminal kinase domain). As substrates, poly-AGKY for Abl, AblT^315I and PDGF-Rβ (#P-1152 Sigma, Munich/Germany), poly-GluTyr for KDR, HER2 and EGFR/HER1 (#P-0275, Sigma, Munich/Germany) or a PKA substrate peptide for PKA (#12-394, Millipore/Upstate, Billerica/USA) were used. Into each well of a 96-well flashplate (#SMP-200 in the case of Abl, Abl T^315I, PDGF-Rβ, EGFR, HER2 and KDR, #SMP-103 in the case of PKA; Perkin Elmer, Waltham/USA) kinase protein was diluted into kinase assay buffer (50 mM HEPES pH 7.5, 3 mM MgCl2, 3 mM MnCl2, 1 mM DTT, 3 μM sodium orthovanadate, 5 μg/ml PEG 8000) containing the appropriate substrate (final volume 89 μl). DMSO vehicle or compounds are added as 1 μl/well prior to the initiation of the kinase reaction by 10 μl 1 mM [^33P]-γATP (4×10^5 cpm). Reactions were allowed to proceed for a time predetermined to be linear on a time versus phosphorylation plot (30 min for PKA, otherwise 80 min) and terminated with the addition of an equal volume of phosphoric acid (2% H3PO4 for 5 minutes). Plates were washed three times with 0.9% w/v NaCl and quantitated by liquid scintillation counting.

[1] = system: EOL1 acute hypereosinophilic myeloid leukemia cell line; assay: Cellular cytotoxicity assay (Alamar Blue), EOL1; type: cell-based; details: Homo sapiens, 72 h, only a range over the listed compounds is given, read-out: Cytotoxicity towards EOL1 cell line IC50
Procedure: (§2) The anti-proliferative activity of the chimeric HDAC and protein kinase inhibitory chimeric compounds of the present invention was evaluated using HeLa cervical carcinoma, A549 NSCLC, SKOV3 ovarian carcinoma, Cal27 head and neck cancer, K562 chronic myeloid leukemia (CML) and EOL1 acute hypereosinophilic myeloid leukemia, cell lines. For quantification of cellular proliferation/living cells the Alamar Blue (Resazurin) cell viability assay was applied (O'Brien et al. Eur Biochem. 267, 5421-5426, 2000). In this assay Resazurin is reduced to the fluorescent resorufin by cellular dehydrogenase activity, correlating with viable, proliferating cells. The examples were dissolved as 20 mM solutions in dimethylsulfoxide (DMSO) and subsequently diluted in semi-logarithmic steps. Cell lines were seeded at respective density into 96 well flat bottom plates in a volume of 200 μl per well. 24 h after seeding 1 μl each of the compound dilutions were added into each well of the 96 well plate. Each compound dilution was tested as quadruplicates. Wells containing untreated control cells were filled with […] DMEM medium containing 0.5% v:v DMSO. The cells were then incubated with the substances for 72 h at 37° C. in a humidified atmosphere containing 5% carbon dioxide. To determine the viability of the cells, 20 μl of an Resazurin solution (Sigma; 90 mg/l) were added. After 4 h incubation at 37° C. the fluorescence was measured at an extinction of 544 nm and an emission of 590 nm. For the calculation of the cell viability the emission value from untreated cells was set as 100% viability and the emission rates of treated cells were set in relation to the values of untreated cells. Viabilities were expressed as % values. The corresponding IC50 values of the compounds for cytotoxic activity are determined from the concentration-effect curves by means of non-linear regression.

PDGFRβ = biological target: T2, PDGFRβ (Homo sapiens, UniProt P09619); assay: Biochemical flash-plate based kinase assay, PDGFRβ; details: only a range over the listed compounds is given; read-out: PDGFRβ inhibition IC50
T2 construct: purchased ProQinase, Freiburg/Germany
T2 sequence (P09619 33-1106): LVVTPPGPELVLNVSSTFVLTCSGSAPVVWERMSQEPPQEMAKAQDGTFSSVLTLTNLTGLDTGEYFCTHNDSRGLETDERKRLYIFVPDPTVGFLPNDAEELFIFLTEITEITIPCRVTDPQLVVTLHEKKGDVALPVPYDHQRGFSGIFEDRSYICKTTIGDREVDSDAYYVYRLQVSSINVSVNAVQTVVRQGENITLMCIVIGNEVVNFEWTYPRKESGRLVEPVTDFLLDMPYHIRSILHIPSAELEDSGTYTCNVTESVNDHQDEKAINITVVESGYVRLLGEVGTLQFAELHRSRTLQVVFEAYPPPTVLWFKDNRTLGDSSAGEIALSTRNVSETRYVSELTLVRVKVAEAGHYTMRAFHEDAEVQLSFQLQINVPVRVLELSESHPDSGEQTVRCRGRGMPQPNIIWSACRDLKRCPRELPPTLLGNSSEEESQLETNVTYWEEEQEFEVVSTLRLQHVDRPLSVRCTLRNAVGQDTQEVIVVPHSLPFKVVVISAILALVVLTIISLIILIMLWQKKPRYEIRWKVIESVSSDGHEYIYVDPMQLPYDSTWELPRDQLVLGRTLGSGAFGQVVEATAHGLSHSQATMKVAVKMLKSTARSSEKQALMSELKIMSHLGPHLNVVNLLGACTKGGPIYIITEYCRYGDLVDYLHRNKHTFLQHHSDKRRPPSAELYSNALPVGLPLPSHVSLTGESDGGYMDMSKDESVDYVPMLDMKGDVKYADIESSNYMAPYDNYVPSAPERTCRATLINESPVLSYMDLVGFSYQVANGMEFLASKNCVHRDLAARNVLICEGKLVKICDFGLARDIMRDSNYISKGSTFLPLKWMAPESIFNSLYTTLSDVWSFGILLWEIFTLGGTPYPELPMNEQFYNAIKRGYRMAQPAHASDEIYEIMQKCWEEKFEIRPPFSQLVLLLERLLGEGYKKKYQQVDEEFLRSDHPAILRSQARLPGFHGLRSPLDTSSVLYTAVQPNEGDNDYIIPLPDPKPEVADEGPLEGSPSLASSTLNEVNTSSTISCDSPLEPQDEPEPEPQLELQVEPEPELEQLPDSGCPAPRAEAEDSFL
Description: as §1

[2] = biological target: T3, recombinant HDAC1 isolated from HEK293 cells with heterologous HDAC1 expression (Homo sapiens, UniProt Q13547); assay: Fluorimetric rHDAC1 activity assay; type: biochemical; details: only a range of IC50 over the compounds given; read-out: rHDAC1 inhibitory activity IC50
T3 construct: made in house
T3 sequence (Q13547 whole entry): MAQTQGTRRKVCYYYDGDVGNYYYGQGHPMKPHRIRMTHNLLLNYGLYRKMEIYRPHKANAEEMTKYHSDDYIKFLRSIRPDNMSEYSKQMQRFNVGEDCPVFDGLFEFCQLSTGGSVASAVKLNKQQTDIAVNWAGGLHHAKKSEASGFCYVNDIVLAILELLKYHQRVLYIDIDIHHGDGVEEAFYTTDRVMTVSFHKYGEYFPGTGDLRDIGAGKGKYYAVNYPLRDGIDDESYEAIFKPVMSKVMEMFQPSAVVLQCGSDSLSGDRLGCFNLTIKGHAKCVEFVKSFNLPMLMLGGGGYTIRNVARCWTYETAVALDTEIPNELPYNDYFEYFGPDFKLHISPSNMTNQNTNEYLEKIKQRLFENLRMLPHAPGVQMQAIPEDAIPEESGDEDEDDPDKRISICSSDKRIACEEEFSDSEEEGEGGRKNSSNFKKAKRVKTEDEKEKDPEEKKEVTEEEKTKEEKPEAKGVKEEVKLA

Bcr-abl (wt) = biological target: T4, Bcr-abl (wt) (Homo sapiens, UniProt P00519); assay: Biochemical flash-plate based kinase assay, Bcr-abl (wt); details: only a range over the listed compounds is given; read-out: Bcr-abl (wt) inhibition IC50
T4 construct: purchased ProQinase, Freiburg/Germany
T4 sequence (P00519 118-553 limits assumed): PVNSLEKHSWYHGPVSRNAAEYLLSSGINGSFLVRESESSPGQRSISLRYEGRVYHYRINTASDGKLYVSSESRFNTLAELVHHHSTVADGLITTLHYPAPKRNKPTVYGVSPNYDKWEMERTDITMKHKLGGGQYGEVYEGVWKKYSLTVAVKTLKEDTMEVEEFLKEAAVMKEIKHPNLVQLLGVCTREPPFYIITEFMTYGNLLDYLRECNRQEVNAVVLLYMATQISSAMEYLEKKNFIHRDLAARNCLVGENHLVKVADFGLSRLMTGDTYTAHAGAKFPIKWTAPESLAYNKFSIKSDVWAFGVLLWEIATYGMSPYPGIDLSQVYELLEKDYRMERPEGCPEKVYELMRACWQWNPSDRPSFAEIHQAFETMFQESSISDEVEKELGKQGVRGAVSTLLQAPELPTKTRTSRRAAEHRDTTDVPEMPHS
Description: as §1

Bcr-abl T^315I = biological target: T5, Bcr-abl T^315I (Homo sapiens, UniProt P00519, T315I); assay: Biochemical flash-plate based kinase assay, Bcr-abl T315I; details: only a range over the listed compounds is given; read-out: Bcr-abl T^315I inhibition IC50
T5 construct: purchased Millipore/Upstate, Billerica/USA
Description: as §1

[3] = system: histone H3 hyperacetylation in HeLa cervical carcinoma cells; assay: Cellular histone H3 hyperacetylation assay; type: cell-based; details: Homo sapiens, 24 h, only a range over the listed compounds is given, read-out: Induction of histone H3 hyperacetylation in HeLa cervical carcinoma cells EC50
Description: To assess the cellular efficacy of a histone deacetylase inhibitor in vitro, an assay was set up in black clear-bottom 96-well plates and optimized for use on the Cellomics “ArrayScan II” platform for a quantitative calculation of histone acetylation. The protocol uses a polyclonal rabbit antibody, specifically binding to acetylated lysine 1-20 of human histone H3 on fixed cells with an Alexa Fluor 488 labeled goat anti rabbit-IgG used for counterstaining (Beckers et al. Int J. Cancer 121, 1138, 2007).
5×10^3 HeLa cervical carcinoma cells/well (ATCC. CCL-2) in 200 μl Dulbecco rs modified Eagle's medium (DMEM) containing 10% fetal calf serum are seeded at day 1 in Packard view plates and incubated for 24 h under standard cell culture conditions. On day 2, 1 μl test compound (200× final concentration) is added and incubation continued for further 24 h. On day 3, the culture medium is discarded and attached cells fixed for 15 min at room temperature by addition of 100 μl fixation buffer (3.7% v:v formaldehyde in phosphate buffered saline/PBS). After discarding the fixation buffer and one wash with blocking solution (1% BSA, 0.3% Tween 20 in PBS), cells are permeabilized at room temperature by addition of 100 μl/well permeabilization buffer (30.8 mM NaCl, 0.54 mM Na2HPO4, 0.31 mM KH2PO4, 0.1% v:v Triton X-100) for 15 min at room temperature. After discarding the permeabilization buffer and washing twice with 100 μl/well blocking solution at room temperature, the 1st antibody (anti-K^1-20 histone H3 antibody, Calbiochem No. 382158) in blocking solution (50 μl/well) is added. After incubation for 1 h at room temperature, the wells are washed twice at room temperature with 100 μl/well blocking solution before addition of the 2nd antibody (goat-anti-rabbit Alexa Fluor 488; MoBiTec No. A-11008) in blocking solution (50 μl/well). After further incubation for 1 h at room temperature, wells are washed twice with 100 μl/well blocking solution at room temperature. Finally, 100 μl/well PBS are added and image analysis performed on the Cellomics “ArrayScan II” platform. For EC50 determination, the percentage of positive cells showing nuclear fluorescence is determined and EC50 calculation done from concentration-effect curves by means of non-linear regression. For calibration, a positive (reference HDAC inhibitors like SAHA or NVP LBH-589) and a negative control were included.

EGFR/HER1 = biological target: T6, EGFR/HER1 (Homo sapiens, UniProt P00533); assay: Biochemical flash-plate based kinase assay, EGFR/HER1; details: only a range over the listed compounds is given; read-out: EGFR/HER1 inhibition IC50
T6 construct: EGFR/HER1 C-terminal kinase domain; made in house
T6 sequence (P00533 712-979 limits assumed): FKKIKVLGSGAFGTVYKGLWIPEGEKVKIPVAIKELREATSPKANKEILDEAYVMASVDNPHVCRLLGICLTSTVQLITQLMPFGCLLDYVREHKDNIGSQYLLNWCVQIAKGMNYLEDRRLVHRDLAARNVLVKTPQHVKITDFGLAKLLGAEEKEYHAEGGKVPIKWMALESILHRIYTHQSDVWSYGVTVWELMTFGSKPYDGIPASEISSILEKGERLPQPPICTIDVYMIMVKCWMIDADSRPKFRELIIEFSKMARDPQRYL
Description: as §1

A549 NSCLC cell line = assay: Cellular cytotoxicity assay (Alamar Blue), A549; type: cell-based; details: Homo sapiens
Procedure: as §2

[4] = system: K562 chronic myeloid leukemia (CML) cell line; assay: Cellular cytotoxicity assay (Alamar Blue), K562; type: cell-based; details: Homo sapiens, 72 h, only a range over the listed compounds is given, read-out: Cytotoxicity towards K562 CML cell line IC50
Procedure: as §2

[5] = system: HeLa cervical carcinoma cell line; assay: Cellular cytotoxicity assay (Alamar Blue), HeLa; type: cell-based; details: Homo sapiens, 72 h
Procedure: as §2

[6] = system: Cal27 head and neck cancer cell line; assay: Cellular cytotoxicity assay (Alamar Blue), Cal27; type: cell-based; details: Homo sapiens, CAL-27; 72 h; only a range over the listed compounds is given; read-out: Cytotoxicity towards Cal27 cell line IC50
Procedure: as §2

[7] = system: SKOV3 ovarian carcinoma cell line; assay: Cellular cytotoxicity assay (Alamar Blue), SKOV3; type: cell-based; details: Homo sapiens, SK-OV-3; 72 h; only a range over the listed compounds is given; read-out: Cytotoxicity towards SKOV3 cell line IC50
Procedure: as §2

HER2 = biological target: T7, HER2 (Homo sapiens, UniProt P04626); assay: Biochemical flash-plate based kinase assay, HER2; details: only a range over the listed compounds is given; read-out: HER2 inhibition IC50
T7 construct: HER2 c-terminal kinase domain; made in house
T7 sequence (P04626 720-987 limits assumed): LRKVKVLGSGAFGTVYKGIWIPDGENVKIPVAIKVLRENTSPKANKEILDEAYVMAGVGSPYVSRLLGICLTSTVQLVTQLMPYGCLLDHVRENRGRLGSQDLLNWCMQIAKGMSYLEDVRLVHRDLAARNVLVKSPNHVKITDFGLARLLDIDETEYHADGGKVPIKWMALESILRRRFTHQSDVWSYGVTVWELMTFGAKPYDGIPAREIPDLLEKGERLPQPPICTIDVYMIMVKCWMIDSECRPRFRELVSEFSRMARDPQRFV
Description: as §1, with “Reactions were allowed to proceed for a time predetermined to be linear on a time versus phosphorylation plot (30 min for PKA, otherwise 80 min) and terminated with the addition of an equal volume of phosphoric acid (2% H3PO4 for 5 minutes).” left out

Work on `O=C(/C=C/c1ccc(-c2ccc3ncnc(Nc4ccc(OCc5cccc(F)c5)c(Cl)c4)c3c2)s1)NO` [[7], E-3-(5-{4-[3-Chloro-4-(3-fluorobenzyloxy)-phenylamino]quinazolin-6-yl}thiophene-2-yl)-N-hydroxy-acrylamide hydrochloride monohydrate] yielded an IC50 (Protein kinase A (PKA)) of 35000 nM.
`Cc1ccc(NC(=O)c2ccc(/C=C/C(=O)NO)cc2)cc1Nc1nc(-c2cccnc2)cs1` [[19], (E)-4-(3-(hydroxyamino)-3-oxoprop-1-enyl)-N-(4-methyl-3-(4-(pyridin-3-yl)thiazol-2-ylamino)phenyl)benzamide] showed an IC50 [1] of 3 to 780 nM, an IC50 (PDGFRβ) of 2100 to 71000 nM and an IC50 [2] of 77 to 1400 nM. The IC50 (Bcr-abl (wt)) was 2000 to 39000 nM and the IC50 (Bcr-abl T^315I) was 1000 to 34000 nM.
For `O=C(NO)c1ccc(-c2ccc3ncnc(Nc4ccc(OCc5cccc(F)c5)c(Cl)c4)c3c2)s1` [[4], 5-{4-[3-Chloro-4-(3-fluorobenzyloxy)phenyl-amino]quinazolin-6-yl}thiophene-2-carboxylic acid hydroxyamide hydrochloride dihydrate], the EC50 [3] was ≥ 3650 nM and the IC50 (EGFR/HER1) was 2.2 to 150 nM.
With `O=C(/C=C/c1ccc(-c2ccc3ncnc(Nc4ccc(OCc5cccc(F)c5)c(Cl)c4)c3c2)o1)NO` [[2], E-3-(5-{4-[3-Chloro-4-(3-fluorobenzyloxy)-phenylamino]quinazolin-6-yl}furan-2-yl)-N-hydroxy-acrylamide hydrochloride monohydrate] the EC50 [3] was ≥ 3650 nM, the IC50 (A549 NSCLC cell line; A549, 72 h, read-out: Cytotoxicity towards A549 NSCLC cell line IC50 (M)) was ≥ 1.1e-06 M and the IC50 (EGFR/HER1) was 2.2 to 150 nM. The IC50 [2] was ≥ 35.3 nM.
For `CN(C(=O)c1ccc(C(=O)Nc2ccccc2N)cc1)c1cccc(Nc2nccc(-c3cccnc3)n2)c1` [[30], N-(2-Amino-phenyl)-N′-methyl-N′-[3-(4-pyridin-3-yl-pyrimidin-2-ylamino)-phenyl]-terephthalamide], the melting point was 204.6 °C (dec.), the IC50 (Protein kinase A (PKA)) was 38000 nM and the IC50 (Bcr-abl T^315I) was 1000 to 34000 nM.
With `Cc1ccc(NCc2ccc(C(=O)Nc3ccccc3N)cc2)cc1Nc1nccc(-c2cccnc2)n1` [[15], N-(2-Amino-phenyl)-4-{[4-methyl-3-(4-pyridin-3-yl-pyrimidin-2-ylamino)-phenylamino]-methyl}-benzamide] the IC50 [4] was 490 to 4070 nM, the IC50 ([5]; only a range over the listed compounds is given, read-out: Cytotoxicity towards HeLa cervical cell line IC50) was ≥ 1.15e-06 M and the IC50 (A549 NSCLC cell line; A549, 72 h, only a range over the listed compounds is given, read-out: Cytotoxicity towards A549 NSCLC cell line IC50) was ≥ 2.95e-06 M. It also gave an IC50 (PDGFRβ) of 2100 to 71000 nM, an IC50 (Bcr-abl (wt)) of 2000 to 39000 nM and an IC50 (Bcr-abl T^315I) of 1000 to 34000 nM.
With `C#Cc1cccc(Nc2ncnc3ccc(NC(=O)c4ccc(C(=O)Nc5ccccc5N)nc4)cc23)c1` [[36], N^2-(2-aminophenyl)-N^5-(4-(3-ethynylphenylamino)-quinazolin-6-yl)pyridine-2,5-dicarboxamide] the melting point was 213 to 216 °C, the IC50 [6] was 160 to 8000 nM and the IC50 (EGFR/HER1) was 2.2 to 150 nM.
With `C#Cc1cccc(Nc2ncnc3cc(NC(=O)c4ccc(C(=O)Nc5ccccc5N)nc4)ccc23)c1` [[39], Pyridine-2,5-dicarboxylic acid 2-[(2-amino-phenyl)-amide]-5-{[4-(3-ethynyl-phenylamino)-quinazolin-7-yl]-amide}] the IC50 [7] was ≥ 560 nM and the IC50 (HER2) was 2 to 740 nM.
In the case of `O=C(NO)c1ccc(-c2ccc3ncnc(Nc4ccc(OCc5cccc(F)c5)c(Cl)c4)c3c2)o1` [[6], 5-{4-[3-Chloro-4-(3-fluorobenzyloxy)phenylamino]-quinazolin-6-yl}furan-2-carboxylic acid hydroxyamide hydrochloride monohydrate], the EC50 [3] is reported as ≥ 3650 nM, the IC50 ([5]; read-out: Cytotoxicity towards HeLa cervical cell line IC50 (M)) is reported as 9.1e-07 to 9.4e-06 M and the IC50 (Protein kinase A (PKA)) is reported as 85000 nM. For the same compound, the IC50 (HER2) was 2 to 740 nM and the IC50 [2] was ≥ 35.3 nM.
